Measured values: paper PMC6152638, “Anti-Inflammatory Phenolic Acid Esters from the Roots and Rhizomes of Notopterygium incisium and Their Permeability in the Human Caco-2 Monolayer Cell Model” (Molecules : A Journal of Synthetic Chemistry and Natural …, 2017)
“Also recorded” adds a separate entry of the source. Where two headings read alike, the source gives them in different places.

Tests used:
[1] = tested on: NO production in LPS-stimulated RAW264.7 cells; design: method as in PMID 28333094; details: cited from earlier work
[2] = Stability of the phenolic acid esters in HPLC method validation (Table S1); assay type: physicochemical
Experimental: Quantitative analysis of nine phenolic acid esters was performed on a Dionex Ultimate™ 3000 UHPLC system (Dionex Corp., Sunnyvale, CA, USA), comprised of Ultimate 3000 pump, autosampler, column compartment, and diode array detector. The signals were acquired and processed applying a Chromeleon version 6.80 software (Dionex Corp., Sunnyvale, CA, USA). HPLC separation was performed on a C18 Luna® column (250 mm × 4.60 mm i.d., 5 μm) (Phenomenex, Torrance, CA, USA). […] The detection wavelength was set at 305 nm for 2, 270 nm for 3, 259 nm for 4, 325 nm for 1 and 5–9. Column oven was maintained at 25 °C, and the injected volume was 20 μL. The calibration curves were constructed by plotting peak area (y, mAU × min) versus concentration (x, µM). The linear equations across 1–75 µM were y = 0.0087x − 0.0041 with r^2 of 0.9994 for 1, y = 0.0066x − 0.0013 with r^2 of 0.9999 for 2, y = 0.0667x − 0.0269 with r^2 of 0.9997 for 4, y = 0.0917x + 0.0040 with r^2 of 0.9998 for 5, y = 0.0614x − 0.0038 with r^2 of 0.9999 for 6, y = 0.0623x + 0.0051 with r^2 of 0.9999 for 8, and y = 0.0639x − 0.0464 with r^2 of 0.9978 for 9. […] Quantification was carried out by peak area measurements in comparison with the calibration curves.

RAW264.7 cells = assay: MTT cytotoxicity assay in RAW264.7 cells; details: viability less than 95% of control considered toxic
Experimental: The cell viability less than 95% of control was considered toxic.
Cell viability (>95%) was assessed by using an MTT assay.

[3] = Transport in the human intestinal Caco-2 cell monolayer model; assay type: in vitro ADME; details: human; for Papp B→A at 90 min, 50 µM / efflux ratio at 90 min, 50 µM: Caco-2; for Papp B→A at 90 min, 50 µM: basolateral to apical; for efflux ratio at 90 min, 50 µM: ratio of Papp BL→AP to Papp AP→BL
Experimental: (§1) For confluence and differentiation, cells were seeded at a density of 1 × 10^5 cells/cm^2 into 12-well Transwell plates (insert diameter 12 mm, pore size 3.0 μm, membrane growth area 1.12 cm^2, Costar® #3402) and were allowed to grow for 21 days before the permeation experiment. On Day 21, the monolayers with TEER values >500 Ω·cm^2 were qualified for the transport experiment. The transport study was initiated by the careful removal of the culture medium from AP and BL side of the inserts. Caco-2 monolayers were rinsed twice with pre-warmed HBSS and were incubated by pre-warmed HBSS for 30 min at 37 °C. Stock solutions of test phenolic acid esters were prepared in DMSO and diluted to 50 µM with HBSS. […] The assayed solutions (50 µM) were added to the AP side (0.5 mL, for absorption transport) or BL side (1.5 mL, for efflux transport) of the inserts, while the receiving chamber contained the corresponding volume of HBSS. Incubation was performed at 37 °C for 90 min, with shaking at 50 rpm. Samples were collected from the inserts, then frozen, lyophilized, redissolved in MeOH, and injected into HPLC system for quantitative analysis.
(§2) The Papp values were calculated as the following equation:Papp = (dQ/dt) × (1/A) × (1/C0) (cm/s)(1) where dQ/dt is the rate of the appearance of the test compound on the receiver compartment (μmol/s), C0 is the initial test compound concentration on the donor compartment (μmol/mL), and A is the surface area of Caco-2 monolayer (cm^2).

Caco-2 cell monolayer = assay: as above; assay type: in vitro ADME; details: for absorption assignment: assigned from Papp AP→BL against propranolol and atenolol; for amount in the receiving chambers: HPLC quantification after transport
Experimental: as §1, §2

[4] = tested on: NO production in LPS-activated RAW264.7 macrophages; assay: NO inhibitory assay in LPS-activated RAW264.7 macrophages (Griess); assay type: cell-based, murine; details: Mus musculus, read-out: IC50 on NO production
Experimental: Briefly, RAW 264.7 cells were maintained in DMEM containing 10% FBS, in a constant humidity atmosphere of 5% CO2 and 95% air at 37 °C, seeded in 96-well culture plates (Costar® #3599, Cambridge, MA, USA) at a density of 3 × 10^4 cells/well for 12 h, and then stimulated with LPS (1 μg/mL) and treated with various concentrations of assayed compounds for 24 h. After that, the cell culture supernatant (100 μL) was collected to react with Griess reagent (100 μL) for 15 min at room temperature. The nitrite in culture medium was measured as an indicator of NO production. NaNO2 was used to generate a standard curve, and NO production was determined by measuring the optical density at 540 nm in comparison with the standard curve. […] The experiments were performed in parallel three times, and L-NIL was used as a positive control. Cell viability (>95%) was assessed by using an MTT assay. The IC50 values were calculated by the software SPSS 16.0 (SPSS Inc., Chicago, IL, USA).

[5] = Caco-2, apical to basolateral, 50 µM, incubation up to 90 min, n = 4
[6] = Caco-2, values as stated in text
[7] = 50 µM, incubation up to 90 min, n = 4
[8] = RAW264.7, LPS 1 μg/mL, 24 h, n = 3

Compound	IC50 [1]	Stability ([2]; QC 5 μM)	Stability ([2]; QC 25 μM)	Stability ([2]; QC 50 μM)	cytotoxicity (MTT) (RAW264.7 cells; 0.78125–25 μM)	Papp A→B at 90 min, 50 µM [3, 5]	Papp A→B at 90 min, 50 µM [3, 6]	Papp B→A at 90 min, 50 µM [3, 7]	efflux ratio at 90 min, 50 µM [3]	absorption assignment (Caco-2 cell monolayer)	IC50 [4, 8]	cytotoxicity (MTT) (RAW264.7 cells; 3.125–100 μM)	amount in the receiving chambers (Caco-2 cell monolayer)	cytotoxicity (MTT) (RAW264.7 cells; 1.5625–50 μM)	cytotoxicity (MTT) (RAW264.7 cells; 0.25 to 8 μM)	IC50 ([4]; RAW264.7, 24 h)
COc1cc(/C=C/C(=O)OCC(O)COC(=O)/C=C/c2ccc(O)c(OC)c2)ccc1O [1,3-O-diferuloylglycerol]	12 ± 1.07 µM															
COc1cc(/C=C/C(=O)OCC(CO)OC(=O)/C=C/c2ccc(O)cc2)ccc1O (stereo not drawn) [1-O-feruloyl-2-O-p-coumaroylglycerol]	9.12 ± 0.72 µM															
CC/C(C)=C/CCOC(=O)/C=C/c1ccc(O)c(OC)c1 [Compound 1, 4-methyl-3-trans-hexenylferulate]		93.56±1.02%	95.65±0.56%	92.25±1.63%	no toxicity	0.5 ± 0.12 ×10⁻⁶ cm/s	< 1 ×10⁻⁶ cm/s	0.62 ± 0.12 ×10⁻⁶ cm/s	1.24	poorly absorbed	1.01 ± 0.08 µM					
O=C(OCc1ccccc1)c1ccccc1O [Compound 2, benzylsalicylate]		98.84±2.09%	94.57±1.85%	97.25±2.09%		18 ± 1.63 ×10⁻⁶ cm/s	> 10 ×10⁻⁶ cm/s	13.4 ± 0.63 ×10⁻⁶ cm/s		good absorption; also recorded: well-absorbed	53.7 ± 4.13 µM					
CC1(C)C2CCC1(C)C(OC(=O)C=Cc1ccccc1)C2 (stereo not drawn) [Compound 3, bornylcinnamate]						< 0.05 ×10⁻⁶ cm/s	< 0.1 ×10⁻⁶ cm/s	< 0.02 ×10⁻⁶ cm/s		poorly absorbed; also recorded: hardly permeate	70.5 ± 25.9 µM	no toxicity	below the lower limit of detection			
COc1ccc(C(=O)OCCc2ccc(O)cc2)cc1 [Compound 4, p-hydroxyphenethyl anisate]		92.28±2.07%	100.74±2.15%	95.85±2.01%		0.36 ± 0.04 ×10⁻⁶ cm/s	< 1 ×10⁻⁶ cm/s	0.05 ± 0.01 ×10⁻⁶ cm/s	0.15	poorly absorbed	11.1 ± 1.43 µM	no toxicity				
COc1cc(/C=C/C(=O)OC2CC3CCC2(C)C3(C)C)ccc1O (stereo not drawn) [Compound 5, (−)-bornylferulate]		96.29±0.99%	94.56±0.96%	95.85±1.01%	no toxicity	0.08 ± 0.02 ×10⁻⁶ cm/s	< 0.1 ×10⁻⁶ cm/s	0.13 ± 0.02 ×10⁻⁶ cm/s	1.69	poorly absorbed; also recorded: hardly permeate	4.63 ± 1.73 µM					
COc1cc(/C=C/C(=O)OC(C)C)ccc1O [Compound 6, isopropylferulate]		95.08±1.56%	102.02±1.96%	102.05±1.39%		17.6 ± 2.27 ×10⁻⁶ cm/s	> 10 ×10⁻⁶ cm/s	13.8 ± 2.74 ×10⁻⁶ cm/s	0.79	good absorption; also recorded: well-absorbed	12.6 ± 2.8 µM			no toxicity		
CCCCCCCCCCCCCCCCCCCCCCCCCCCCCCOC(=O)/C=C/c1ccc(O)c(OC)c1 [Compound 7, trans-triacontyl-4-hydroxy-3-methoxycinnamate]						< 0.02 ×10⁻⁶ cm/s	< 0.1 ×10⁻⁶ cm/s	< 0.01 ×10⁻⁶ cm/s		poorly absorbed; also recorded: hardly permeate			below the lower limit of detection		had cytotoxicity	
COc1ccc(CCOC(=O)/C=C/c2ccc(O)c(OC)c2)cc1 [Compound 8, 4-methoxyphenethylferulate]		93.28±2.17%	95.45±1.12%	102.58±1.54%		2.21 ± 0.07 ×10⁻⁶ cm/s	~1 ×10⁻⁶ cm/s	2.55 ± 0.44 ×10⁻⁶ cm/s	1.15	moderately absorbed	2.47 ± 0.64 µM			no toxicity		
COc1cc(/C=C/C(=O)OCCc2ccccc2)ccc1O [Compound 9, phenethylferulate]		92.26±2.89%	93.71±1.88%	101.99±1.32%		0.66 ± 0.16 ×10⁻⁶ cm/s	< 1 ×10⁻⁶ cm/s	0.7 ± 0.18 ×10⁻⁶ cm/s	1.06	poorly absorbed	2.73 ± 0.58 µM			no toxicity		
COc1cc(/C=C/C(=O)O)ccc1O [Compound 10, ferulic acid, reference compound]											67.9 ± 0.91 µM					
O=C(O)/C=C/c1ccccc1 [Compound 11, cinnamic acid, reference compound]											> 200 µM					
CC(=N)NCCCC[C@H](N)C(=O)O [L-NIL, reference compound]																9.37 ± 1.57 µM
CC(C)NCC(O)COc1cccc2ccccc12 (stereo not drawn) [propranolol, reference compound]							22.9 ×10⁻⁶ cm/s									
